The results in this text go back to patent US6825354B2 (Wyeth Holdings Corporation, priority 1999, dated 2004).

Counter-ions that a name gives are not always drawn.

The target of one series is TNF-α converting enzyme (TACE) (Homo sapiens, UniProt P78536). Kind of series: TACE inhibition, fluorescent peptidyl substrate. The series is classed as biochemical.
Sequence of TNF-α converting enzyme (TACE) (P78536 215-824): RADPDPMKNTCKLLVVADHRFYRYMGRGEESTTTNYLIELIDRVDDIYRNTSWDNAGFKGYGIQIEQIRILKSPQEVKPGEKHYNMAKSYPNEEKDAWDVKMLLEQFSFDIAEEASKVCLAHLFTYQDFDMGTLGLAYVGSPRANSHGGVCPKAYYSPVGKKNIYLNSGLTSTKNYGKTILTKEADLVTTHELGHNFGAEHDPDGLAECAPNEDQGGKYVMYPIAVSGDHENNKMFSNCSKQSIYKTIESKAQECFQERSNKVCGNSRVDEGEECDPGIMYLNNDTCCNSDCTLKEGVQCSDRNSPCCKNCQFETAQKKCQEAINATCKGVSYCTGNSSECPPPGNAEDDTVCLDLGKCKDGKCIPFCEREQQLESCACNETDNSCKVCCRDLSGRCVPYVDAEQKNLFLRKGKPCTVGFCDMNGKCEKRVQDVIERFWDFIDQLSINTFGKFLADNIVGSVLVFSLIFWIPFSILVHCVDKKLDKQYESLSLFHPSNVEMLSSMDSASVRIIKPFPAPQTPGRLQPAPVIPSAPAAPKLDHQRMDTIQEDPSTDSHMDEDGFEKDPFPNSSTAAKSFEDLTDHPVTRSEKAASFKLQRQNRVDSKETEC
Settings: not given
As for the experimental part:
[…] The reaction is initiated by addition of a fluorescent peptidyl substrate (final concentration 100 μM) to each well and then shaking on a shaker for 5 sec.
The reaction is read (excitation 340 nm, emission 420 nm) for 10 min. and the increase in fluorescence over time is plotted as a linear line. The slope of the line is calculated and represents the reaction rate.
The mean (x±sem) of the control rate is calculated and compared for statistical significance (p<0.05) with drug-treated rates using Dunnett's multiple comparison test.
`CC#CCOc1ccc([S+]([O-])[C@H](C(=O)NO)c2ccc(OC)cc2)cc1` (single isomer, unassigned) [Example 78] had an IC50 of 17.6 nM.

The series is the same for the next values; noted with them: Table 1, first part; read-out: TACE IC50.
In the case of “1-Methyl-1H-pyrrole-2-carboxylic acid {[5-(4-but-2-ynyloxy-benzenesulfinyl)-5-hydroxy-carbamoylpentyl-carbamoyl]-methyl}-amide [Example 61]”, the IC50 is 22.5 nM.

Take “2-(4-But-2-ynyloxy-benzenesulfinyl)-6-(4-thiophen-2-yl-butyrylamino)-hexanoic acid hydroxyamide [Example 58]”: the IC50 amounted to 20.1 nM.

As for “2-(4-But-2-ynyloxy-benzenesulfinyl)-6-[2-(1,3-dioxo-1,3-dihydro-isoindol-2-yl)-acetylamino]-hexanoic acid hydroxyamide [Example 55]”, the IC50 was 38.5 nM.

With “2-(4-But-2-ynyloxy-benzenesulfinyl)-6-[2-(3,4-dichloro-phenyl)-acetylamino]-hexanoic acid hydroxyamide [Example 57]”, the IC50 stood at 24.4 nM.

Consider “9H-Xanthene-9-carboxylic acid [5-(4-but-2-ynyloxy-benzenesulfinyl)-5-hydroxycarbamoyl-pentyl]-amide [Example 59]”, for which the IC50 worked out at 22.6 nM.

Take `CC#CCOc1ccc([S+]([O-])C(CCCCNC(=O)c2nccc3ccccc23)C(=O)NO)cc1` (stereo not drawn) [Example 31, Isoquinoline-1-carboxylic acid [5-(4-but-2-ynyloxy-benzenesulfinyl)-5-hydroxycarbamoyl-pentyl]-amide]: the IC50 was 28.3 nM.

As to `CC#CCOc1ccc(S(=O)(=O)C(CCCCNC(=O)Cc2ccc(Cl)c(Cl)c2)C(=O)NO)cc1` (stereo not drawn) [Example 37, 2-(4-But-2-ynyloxy-benzenesulfonyl)-6-[2-(3,4-dichloro-phenyl)-acetylamino]-hexanoic acid hydroxyamide], the IC50 was 43.7 nM.

Take `CC#CCOc1ccc(SC(CCCCNC(=O)CNC(=O)Cc2ccc(Cl)c(Cl)c2)C(=O)NO)cc1` (stereo not drawn) [Example 43, 2-(4-but-2-ynyloxy-phenylsulfanyl)-6-{2-[2-(3,4-dichloro-phenyl)-acetylamino]-acetylamino}-hexanoic acid hydroxyamide]: the IC50 amounted to 32.5 nM.

For `CC#CCOc1ccc(S(=O)(=O)C(CCCCNC(=O)CNC(=O)Cc2ccc(Cl)c(Cl)c2)C(=O)NO)cc1` (stereo not drawn) [Example 65, 2-(4-But-2-ynyloxy-benzenesulfonyl)-6-{2-[2-(3,4-dichloro-phenyl)-acetylamino]-acetylamino}-hexanoic acid hydroxyamide], the IC50 came to 52.1 nM.

Consider “N-[5-(4-But-2-ynyloxy-benzenesulfinyl)-5-hydroxycarbamoyl-pentyl]-2-phenethyl-benzamide [Example 56]”, for which the half-maximal inhibitory concentration (IC50) is 21.9 nM.

As for “N-[5-(4-But-2-ynyloxy-phenylsulfanyl)-5-hydroxycarbamoyl-pentyl]-2-phenethyl-benzamide [Example 15]”, the IC50 turned out to be 138 nM.

Take “N-{[5-(4-But-2-ynyloxy-phenylsulfanyl)-5-hydroxy-carbamoyl-pentylcarbamoyl]-methyl}-2-phenethyl-benzamide [Example 46]”: the IC50 was determined as 84.2 nM.

As to “Quinoline-2-carboxylic acid [5-(4-but-2-ynyloxy-benzenesulfinyl)-5-hydroxycarbamoyl-pentyl]-amide [Example 54]”, the IC50 turned out to be 27.2 nM.

In the case of “Quinoline-3-carboxylic Acid [5-(4-but-2-ynyloxy-benzenesulfinyl)-5-hydroxycarbamoyl-pentyl]-amide [Example 53]”, the IC50 turned out to be 15.2 nM.

The same series, now with this note: Table 1, second part; footnote a: % @ 10 μM.
In the case of `CC#CCOc1ccc(S(=O)(=O)C(C(=O)NO)c2ccc(-c3cccs3)cc2)cc1` (stereo not drawn) [Example 91, 2-{[4-(2-butynyloxy)phenyl]sulfonyl}-N-hydroxy-2-[4-(2-thienyl)phenyl]acetamide], the “TACE % @ 10 μM” value is given as 48%.

On to `CC#CCOc1ccc(SC(C(=O)NO)c2ccc3ccccc3c2)cc1` (stereo not drawn) [Example 114, 2-{[4-(2-Butynyloxy)phenyl]sulfanyl}-2-(2-naphthyl)-N-hydroxyacetamide], for which the “TACE % @ 10 μM” value turned out to be 40.90%.

The same series, now with this note: Table 1, second part; footnote a: IC50 (nM); read-out: TACE IC50.
For the compound `CC#CCOc1ccc([S+]([O-])[C@@H](C(=O)NO)c2ccc(-c3cccs3)cc2)cc1` (stereo partly drawn) [Example 90, (2R)-2-{[4-(2-butynyloxy)phenyl]sulfinyl}-N-hydroxy-2-[4-(2-thienyl)phenyl]ethanamide], the IC50 was determined as 682 nM.

In the case of `CC#CCOc1ccc(SC(C(=O)NO)c2ccc(F)cc2)cc1` (stereo not drawn) [Example 95], the IC50 was 108 nM.

Another series deals with T1, MMP-1 (Homo sapiens, UniProt P03956).
T1 sequence (P03956 100-469): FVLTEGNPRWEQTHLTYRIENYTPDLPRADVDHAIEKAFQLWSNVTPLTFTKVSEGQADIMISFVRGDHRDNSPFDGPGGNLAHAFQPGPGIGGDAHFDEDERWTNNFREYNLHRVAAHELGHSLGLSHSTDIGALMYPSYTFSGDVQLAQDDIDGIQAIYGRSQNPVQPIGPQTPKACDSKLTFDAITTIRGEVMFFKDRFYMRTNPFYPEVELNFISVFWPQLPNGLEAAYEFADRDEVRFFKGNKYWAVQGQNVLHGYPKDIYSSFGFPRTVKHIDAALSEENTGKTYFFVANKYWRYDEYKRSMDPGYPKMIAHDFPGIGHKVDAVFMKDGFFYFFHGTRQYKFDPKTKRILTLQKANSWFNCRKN
Kind of series: MMP-1 inhibition, thiopeptide or fluorescent peptide substrate. It is filed as biochemical. The following applies: Table 1, first part; read-out: MMP1 IC50. As to the method:
The enzyme activity is measured by the rate of the color increase. The thiopeptide substrate is made up fresh as a 20 mM stock in 100% DMSO and the DTNB is dissolved in 100% DMSO as a 100 mM stock and stored in the dark at room temperature. Both the substrate and DTNB are diluted together to 1 mM with substrate buffer (50 mM HEPES pH 7.5, 5 mM CaCl2) before use. The stock of enzyme is diluted with buffer (50 mM HEPES, pH 7.5, 5 mM CaC12, 0.02% Brij) to the desired final concentration.
Alternatively, a fluorescent peptide substrate is used. In this test procedure, the peptide substrate contains a fluorescent group and a quenching group. Upon cleavage of the substrate by an MMP, the fluorescence that is generated is quantitated on the fluorescence plate reader. The assay is run in HCBC assay buffer (50 mM HEPES, pH 7.0, 5 mM Ca^+2, 0.02% Brij, 0.5% Cysteine), with human recombinant MMP-1, MMP-9, or MMP-13. The substrate is dissolved in methanol and stored frozen in 1 mM aliquots. For the assay, substrate and enzymes are diluted in HCBC buffer to the desired concentrations. Compounds are added to the 96 well plate containing enzyme and the reaction is started by the addition of substrate.
For either the thiopeptide or fluorescent peptide test procedures, the slope of the line is calculated and represents the reaction rate. […] The mean (x±sem) of the control rate is calculated and compared for statistical significance (p<0.05) with drug-treated rates using Dunnett's multiple comparison test.
As for “1-Methyl-1H-pyrrole-2-carboxylic acid {[5-(4-but-2-ynyloxy-benzenesulfinyl)-5-hydroxy-carbamoylpentyl-carbamoyl]-methyl}-amide [Example 61]”, the IC50 came to 5600 nM.

As to “2-(4-But-2-ynyloxy-benzenesulfinyl)-6-(4-thiophen-2-yl-butyrylamino)-hexanoic acid hydroxyamide [Example 58]”, the concentration for half-maximal inhibition (IC50) is 4600 nM.

“2-(4-But-2-ynyloxy-benzenesulfinyl)-6-[2-(3,4-dichloro-phenyl)-acetylamino]-hexanoic acid hydroxyamide [Example 57]”: the IC50 came to 4600 nM.

With “9H-Xanthene-9-carboxylic acid [5-(4-but-2-ynyloxy-benzenesulfinyl)-5-hydroxycarbamoyl-pentyl]-amide [Example 59]”, the IC50 worked out at 3400 nM.

On to “N-[5-(4-But-2-ynyloxy-benzenesulfinyl)-5-hydroxycarbamoyl-pentyl]-2-phenethyl-benzamide [Example 56]”, for which the IC50 was 3900 nM.

For the compound “Quinoline-3-carboxylic Acid [5-(4-but-2-ynyloxy-benzenesulfinyl)-5-hydroxycarbamoyl-pentyl]-amide [Example 53]”, the IC50 was 4000 nM.

System in another series: not given
Assay: not given
Settings: not given
For the compound `CC#CCOc1ccc(S(=O)(=O)C(C)(Cc2ccc(OCCN3CCCCC3)cc2)C(=O)NO)cc1` (stereo not drawn) (as salt: hydrochloride) [Example 1, 2-(4-But-2-ynyloxy-benzenesulfonyl)-N-hydroxy-2-methyl-3-[4-(2-piperidin-1-yl-ethoxy)-phenyl]-propionamide], the melting point fell in the range of 114 to 116 °C.

`CC#CCOc1ccc(S(=O)(=O)C(C)(Cc2cccnc2)C(=O)NO)cc1` (stereo not drawn) (as salt: hydrochloride) [Example 3, 2-(4Buty-2-ynyloxy-phenylsulfonyl)-N-hydroxy-2-methyl-3-pyridin-3-ylpropionamide]: the melting point lay within 154 to 156 °C.

In turn, `CC#CCOc1ccc(S(=O)(=O)C(C)(Cc2ccc(-c3ccccc3)cc2)C(=O)NO)cc1` (stereo not drawn) [Example 2, 3-Biphenyl-4-yl-2-(4-Buty-2-ynyloxy-phenylsulfonyl)-N-hydroxy-2-methyl-propionamide] displayed a melting point of 92 to 94 °C.

As to `CC#CCOc1ccc(SC(C)C(=O)NO)cc1` (stereo not drawn) [Example 4, 2-(4-Buty-2-ynyloxy-phenylsulfanyl)-N-hydroxy-propionamide], the melting point was in the range of 102 to 104 °C.

With `CC#CCOc1ccc(SC(CCCCCC)C(=O)NO)cc1` (stereo not drawn) [Example 6, 2-(4-But-2-ynyloxy-phenylsulfanyl)-octanoic Acid Hydroxamide], the melting point amounted to 125 °C.

`CC#CCOc1ccc([S@@+]([O-])[C@@H](CCCCCC)C(=O)NO)cc1` [Example 8, (S)-2-[(S)-[4-(2-Butynyloxy)phenylsulfinyl)]-N-hydroxyoctanamide] gave a melting point of 112.2 °C.

Turning to `CC#CCOc1ccc(OCCC(=O)NO)cc1` [Example 9, 3-(4-But-2-ynyloxy-phenoxy)-N-hydroxy-propionamide], the melting point is 116 to 118 °C.

For the compound `CC#CCOc1ccc(OCCCC(=O)NO)cc1` [Example 10, 4-(4-But-2-ynyloxy-phenoxy)-N-hydroxy-butyramide], the melting point lay within 123 to 125 °C.

Compound `CC#CCOc1ccc(OCC(=O)NO)cc1` [Example 11, 2-(4-But-2-ynyloxy-phenoxy)-N-hydroxy-acetamide] came in with a melting point of 130 to 132 °C.

For the compound `CC#CCOc1ccc(S(=O)(=O)C(C(=O)NO)C2CCN(C(C)=O)CC2)cc1` (stereo not drawn) [Example 121, 2-(1-acetyl-4-piperidinyl)-2-{[4-(2-butynyloxy)phenyl]sulfonyl}-N-hydroxyacetamide], the melting point worked out at 103 °C.

`CC#CCOc1ccc(S(=O)(=O)C(C(=O)NO)C2CCSCC2)cc1` (stereo not drawn) [Example 123, 2-{[4-(2-Butynyloxy)phenyl]sulfonyl}-N-hydroxy-2-tetrahydro-2H-thiopyran-4yl-acetamide] displayed a melting point of 175 to 177 °C.
